Several values for one entry are separate records, joined by “and”; a condition that tells them apart may be missing. Equal entries are not always repeated. Where two headings read alike, the source gives them in different places.
Details: 1 mg single oral dose, fasting; for AUC0-∞: not corrected by dose/weight
Protocol: The data used in this work were obtained from four bioequivalence clinical trials conducted at the Clinical Trials Unit of the Hospital Universitario de La Princesa (UECHUP) (EUDRA-CT IDs: 2012-004433-17, 2013-002159-14, 2014-001123-77 and 2021-000315-23). […] The reference formulation (R) in all cases was Azilect® 1 mg tablets (TEVA Pharmaceuticals Europe B.V.), which was compared against different test formulations (T), all of them 1 mg tablets, except in clinical trial 3, whose test formulation was orodispersible 1 mg. The four bioequivalence trials had two periods and two sequences (TR and RT). In the first period, the volunteers randomly were administered one of the two formulations and, in the following period, after a 7-day washout period, the opposite formulation. All of them were reviewed and approved by Independent Ethics Board (IEB) of the Hospital Universitario de La Princesa, and by the Spanish Drug Agency (AEMPS). In addition, they were performed in accordance with the guidelines of the International Conference on Harmonization for Good Clinical Practice (ICH-GCP), current Spanish legislation and the Revised Declaration of Helsinki. The pharmacogenetic study (SFC-FG-2020-1) was likewise approved by the IEB of Hospital Universitario de La Princesa (registry number 4176, 9 July 2020).
In each period, the drug was administered under fasting conditions, which were maintained until 5 h after drug administration. Each subject provided 20 or 21 blood samples (depending on the clinical trial) that were extracted by BD Vacutainer® vacuum system with EDTA K2 tubes for analysis at different times between 0 h (before receiving the drug) and up to 12 h after drug intake. […] A high-performance liquid chromatography coupled to triple quadrupole mass spectrometry (HPLC-MS/MS) analytical method was used. The latter was validated according to European regulations for bioequivalence assessment, with a lower limit of quantification (LLOQ) of 10 pg/mL and a calibration range of 10–10,000 pg/mL.
Pharmacokinetic parameters were calculated with WinNonlin Professional (Scientific Consulting, Inc., Cary, NC, USA) following a non-compartmental model. The area under the curve (AUC0-t), was obtained by the trapezoidal method. The extrapolation to infinity (AUC0-∞) was determined by the sum of two partial AUCs: AUCt-∞ calculated by the ratio Ct/k, where Ct is the last detectable concentration and k the elimination slope; plus AUC0-t. Cmax and tmax were directly obtained from the plasma time-concentration curves. t1/2 was calculated as Ln2/k. Plasma clearance adjusted for bioavailability (Cl/F) was calculated as dose/AUC. Finally, the volume of distribution adjusted for bioavailability (Vd/F) was calculated by dividing Cl/F by k.
The SPSS software (v23.0, SPSS Inc., Chicago, IL, USA) was used for statistical analyses. AUC0-∞, and Cmax were divided by the dose/weight (DW) ratio to correct sex-related variability related to a varying weight. For the same purpose, Vd/F and Cl/F were divided by weight. With the purpose of normalizing their distributions, all pharmacokinetic parameters were logarithmically transformed for statistical analysis. Initially, a univariate analysis was conducted of the demographic characteristics according to sex and ethnicity, and of the pharmacokinetic parameters or ADR incidence based on sex, biogeographical group (hereinafter, “ethnicity”), genotypes and phenotypes. T-tests were used for the comparison of means for variables with two categories and ANOVA tests for variables with three or more categories, followed by a Bonferroni post-hoc. The Shapiro–Wilk test was used to address the normality of demographic characteristics. For those not following a normal distribution, the nonparametric Kruskal–Wallis test was used.

[1] = SLC22A1*3 (rs12208357) *1/*1, n=104
[2] = SLC22A1*3 (rs12208357) *1/*3, n=8
[3] = SLC22A1*5 (rs34059508) *1/*1, n=113
[4] = SLC22A1*5 (rs34059508) *1/*5, n=5
[5] = Total with CYP1A2 diplotype, n=115
[6] = the single volunteer with the ADR headache

- tmax (CYP2C19 µM, n=3): 0.61 ± 0.35 h
- AUC0-∞/DW (CYP2C19 IM, n=36): 258.70 ± 75.90 ng·kg·h/mL/mg
- Cmax/DW (CYP2C19 IM, n=36): 415.50 ± 185.56 ng·kg/mL/mg
- t1/2 (CYP2C19 IM, n=36): 2.85 ± 0.84 h
- tmax (CYP2C19 IM, n=36): 0.46 ± 0.22 h
- AUC0-∞/DW (CYP2C19 NM, n=56): 267.83 ± 70.38 ng·kg·h/mL/mg
- Cmax/DW (CYP2C19 NM, n=56): 402.65 ± 142.62 ng·kg/mL/mg
- t1/2 (CYP2C19 NM, n=56): 2.67 ± 0.91 h
- tmax (CYP2C19 NM, n=56): 0.53 ± 0.27 h
- AUC0-∞/DW (CYP2C19 PM, n=2): 302.71 ± 14.98 ng·kg·h/mL/mg
- Cmax/DW (CYP2C19 PM, n=2): 412.92 ± 55.36 ng·kg/mL/mg
- t1/2 (CYP2C19 PM, n=2): 1.55 ± 0.41 h
- tmax (CYP2C19 PM, n=2): 0.75 ± 0.11 h
- AUC0-∞/DW (CYP2C19 RM, n=21): 274.03 ± 86.22 ng·kg·h/mL/mg
- Cmax/DW (CYP2C19 RM, n=21): 426.69 ± 180.45 ng·kg/mL/mg
- t1/2 (CYP2C19 RM, n=21): 2.66 ± 0.85 h
- tmax (CYP2C19 RM, n=21): 0.41 ± 0.11 h
- AUC0-∞/DW (Caucasian, n=83): 258.45 ± 71.81 ng·kg·h/mL/mg
- Cmax/DW (Caucasian, n=83): 418.18 ± 169.33 ng·kg/mL/mg
- t1/2 (Caucasian, n=83): 2.56 ± 0.84 h
- tmax (Caucasian, n=83): 0.47 ± 0.19 h
- AUC0-∞/DW (Men, n=53): 278.61 ± 73.51 ng·kg·h/mL/mg
- Cmax/DW (Men, n=53): 447.91 ± 163.88 ng·kg/mL/mg
- t1/2 (Men, n=53): 2.31 ± 0.85 *^& h
- tmax (Men, n=53): 0.52 ± 0.28 h
- AUC0-∞/DW (Mixed ethnicity, n=35): 281.05 ± 80.09 ng·kg·h/mL/mg
- Cmax/DW (Mixed ethnicity, n=35): 389.35 ± 147.25 ng·kg/mL/mg
- t1/2 (Mixed ethnicity, n=35): 2.95 ± 0.94 h
- tmax (Mixed ethnicity, n=35): 0.55 ± 0.31 h
- AUC0-∞/DW (NAT2 RA, n=9): 230.53 ± 67.28 ng·kg·h/mL/mg
- Cmax/DW (NAT2 RA, n=9): 315.46 ± 178.72 ng·kg/mL/mg
- t1/2 (NAT2 RA, n=9): 2.72 ± 0.68 h
- tmax (NAT2 RA, n=9): 0.50 ± 0.24 h
- AUC0-∞/DW (NAT2 SA, n=103): 266.53 ± 75.05 ng·kg·h/mL/mg
- t1/2 (NAT2 SA, n=103): 2.62 ± 0.83 h
- tmax (NAT2 SA, n=103): 0.49 ± 0.24 h
- AUC0-∞/DW [1]: 265.80 ± 73.86 ng·kg·h/mL/mg
- Cmax/DW [1]: 401.10 ± 159.35 ng·kg/mL/mg
- t1/2 [1]: 2.71 ± 0.89 h
- tmax [1]: 0.51 ± 0.24 h
- AUC0-∞/DW [2]: 258.87 ± 34.73 ng·kg·h/mL/mg
- Cmax/DW [2]: 473.14 ± 99.07 ng·kg/mL/mg
- t1/2 [2]: 2.22 ± 0.81 h
- tmax [2]: 0.35 ± 0.11 (pu = 0.038 pm = 0.032) h
- AUC0-∞/DW [3]: 267.52 ± 75.21 ng·kg·h/mL/mg
- Cmax/DW [3]: 415.96 ± 161.85 ng·kg/mL/mg
- t1/2 [3]: 2.70 ± 0.89 h
- tmax [3]: 0.49 ± 0.23 h
- AUC0-∞/DW [4]: 211.83 ± 36.15 ng·kg·h/mL/mg
- t1/2 [4]: 2.24 ± 0.71 h
- tmax [4]: 0.67 ± 0.24 (pu = 0.018) h
- AUC0-∞/DW [5]: 265.29 ± 75.63 ng·kg·h/mL/mg
- Cmax/DW [5]: 411.77 ± 164.35 ng·kg/mL/mg
- t1/2 [5]: 2.66 ± 0.89 h
- tmax [5]: 0.49 ± 0.24 h
- AUC0-∞/DW (Total, n=118): 265.16 ± 74.74 ng·kg·h/mL/mg
- t1/2 (Total, n=118): 2.68 ± 0.89 h
- tmax (Total, n=118): 0.49 ± 0.24 h
- AUC0-∞/DW (UGT1A6 rs7592281 G/G, n=111): 264.10 ± 73.64 ng·kg·h/mL/mg
- Cmax/DW (UGT1A6 rs7592281 G/G, n=111): 409.07 ± 159.30 ng·kg/mL/mg
- t1/2 (UGT1A6 rs7592281 G/G, n=111): 2.66 ± 0.89 h
- tmax (UGT1A6 rs7592281 G/G, n=111): 0.48 ± 0.22 h
- AUC0-∞/DW (UGT1A6 rs7592281 G/T, n=7): 281.88 ± 95.76 ng·kg·h/mL/mg
- Cmax/DW (UGT1A6 rs7592281 G/T, n=7): 418.57 ± 229.87 ng·kg/mL/mg
- t1/2 (UGT1A6 rs7592281 G/T, n=7): 3.03 ± 0.72 h
- tmax (UGT1A6 rs7592281 G/T, n=7): 0.70 ± 0.32 (pu = 0.021, pm = 0.029) h
- AUC0-∞/DW (Women, n=65): 254.19 ± 74.50 ng·kg·h/mL/mg
- Cmax/DW (Women, n=65): 378.42 ± 156.70 ng·kg/mL/mg
- t1/2 (Women, n=65): 2.98 ± 0.80 h
- tmax (Women, n=65): 0.48 ± 0.19 h
- AUC0-∞ (men): 3.71 ± 0.88 ng·h/mL
- AUC0-∞/DW [6]: 197.49 ng·kg·h/mL/mg
- Cmax/DW [6]: 339.71 ng·kg/mL/mg
- AUC0-∞ (women): 4.29 ± 1.41 ng·h/mL
Compound: C#CCN[C@@H]1CCc2ccccc21 [rasagiline, Rasagiline]
- Cmax/DW (NAT2 SA, n=103): 420.47 ± 161.94 (pu = 0.018, pm = 0.018) ng*kg/mL*mg
- Cmax/DW [4]: 266.58 ± 130.60 (pu = 0.022, pm = 0.003) ng*kg/mL*mg
- Cmax/DW (Total, n=118): 409.63 ± 163.00 ng·kg/mL/mg and 409.63 ± 163.01 ng·kg/mL/mg
